Where two headings read alike, the source gives them in different places.
Assays:
Test in all cases: Test C pre/postemergence
Type in all cases: in vivo
[1] = system: morningglory (Ipomoea coccinea); conditions: Ipomoea; for pest or weed control at 62 g/ha: 62 g ai/ha; for pest or weed control at 125 g/ha: 125 g ai/ha; for pest or weed control at 250 g/ha: 250 g ai/ha; for pest or weed control at 500 g/ha: 500 g ai/ha
Outline: (§1)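 Rating scale 0–100: 0 means no effect, 100 complete control; taken visually 12 to 14 days post-treatment versus controls. Pre- and postemergence greenhouse applications, postemergence at 1- to 4-leaf stage, non-phytotoxic solvent with surfactant as carrier.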

[2] = system: woolly cupgrass (Eriochloa villosa); conditions: Eriochloa villosa; for pest or weed control at 62 g/ha: 62 g ai/ha; for pest or weed control at 125 g/ha: 125 g ai/ha; for pest or weed control at 250 g/ha: 250 g ai/ha; for pest or weed control at 500 g/ha: 500 g ai/ha
Outline: as §1

[3] = system: cocklebur (Xanthium strumarium); conditions: Xanthium strumarium; for pest or weed control at 125 g/ha: 125 g ai/ha; for pest or weed control at 250 g/ha: 250 g ai/ha; for pest or weed control at 500 g/ha: 500 g ai/ha
Outline: as §1

[4] = system: common (oilseed) sunflower (Helianthus annuus); conditions: Helianthus annuus, pre-emergence, Preemergence, read-out: Plant response rating, Sunflower
Outline: as §1

[5] = system: crabgrass (Digitaria sanguinalis); conditions: Digitaria sanguinalis; for pest or weed control at 62 g/ha: 62 g ai/ha; for pest or weed control at 125 g/ha: 125 g ai/ha; for pest or weed control at 250 g/ha: 250 g ai/ha; for pest or weed control at 500 g/ha: 500 g ai/ha
Outline: as §1

[6] = system: common ragweed (Ambrosia elatior); conditions: Ambrosia artemisiifolia; for pest or weed control at 62 g/ha: 62 g ai/ha; for pest or weed control at 125 g/ha: 125 g ai/ha; for pest or weed control at 250 g/ha: 250 g ai/ha; for pest or weed control at 500 g/ha: 500 g ai/ha
Outline: as §1

[7] = system: yellow nutsedge (Cyperus esculentus); conditions: Cyperus; for pest or weed control at 62 g/ha: 62 g ai/ha; for pest or weed control at 125 g/ha: 125 g ai/ha; for pest or weed control at 250 g/ha: 250 g ai/ha; for pest or weed control at 500 g/ha: 500 g ai/ha
Outline: as §1

kochia (Kochia scoparia) = conditions: Bassia scoparia; for pest or weed control at 62 g/ha: 62 g ai/ha; for pest or weed control at 125 g/ha: 125 g ai/ha; for pest or weed control at 250 g/ha: 250 g ai/ha; for pest or weed control at 500 g/ha: 500 g ai/ha
Outline: as §1

[8] = system: pigweed (Amaranthus retroflexus); conditions: Amaranthus retroflexus; for pest or weed control at 62 g/ha: 62 g ai/ha; for pest or weed control at 125 g/ha: 125 g ai/ha; for pest or weed control at 250 g/ha: 250 g ai/ha; for pest or weed control at 500 g/ha: 500 g ai/ha
Outline: as §1

[9] = system: giant foxtail (Setaria faberii); conditions: Setaria faberi; for pest or weed control at 125 g/ha: 125 g ai/ha; for pest or weed control at 500 g/ha: 500 g ai/ha; for pest or weed control at 62 g/ha: 62 g ai/ha; for pest or weed control at 250 g/ha: 250 g ai/ha
Outline: as §1

[10] = system: velvetleaf (Abutilon theophrasti); conditions: Abutilon theophrasti; for pest or weed control at 62 g/ha: 62 g ai/ha; for pest or weed control at 125 g/ha: 125 g ai/ha; for pest or weed control at 250 g/ha: 250 g ai/ha; for pest or weed control at 500 g/ha: 500 g ai/ha
Outline: as §1

[11] = post-emergence, Postemergence, scale 0 to 100 (0 no effect, 100 complete control), read-out: Morningglory plant response rating
[12] = post-emergence, Postemergence, scale 0 to 100, read-out: Plant response rating, Morningglory
[13] = pre-emergence, Preemergence, scale 0 to 100, read-out: Plant response rating, Morningglory
[14] = post-emergence, Postemergence, scale 0 to 100 (0 no effect, 100 complete control), read-out: Cupgrass, Woolly plant response rating
[15] = post-emergence, Postemergence, scale 0 to 100, read-out: Plant response rating, Cupgrass, Woolly
[16] = pre-emergence, Preemergence, scale 0 to 100, read-out: Plant response rating, Cupgrass, Woolly
[17] = post-emergence, Postemergence, scale 0 to 100, read-out: Plant response rating, Cocklebur
[18] = pre-emergence, Preemergence, scale 0 to 100, read-out: Plant response rating, Cocklebur
[19] = post-emergence, Postemergence, scale 0 to 100 (0 no effect, 100 complete control), read-out: Crabgrass plant response rating
[20] = post-emergence, Postemergence, scale 0 to 100, read-out: Plant response rating, Crabgrass
[21] = pre-emergence, Preemergence, scale 0 to 100, read-out: Plant response rating, Crabgrass
[22] = post-emergence, Postemergence, scale 0 to 100 (0 no effect, 100 complete control), read-out: Ragweed plant response rating
[23] = post-emergence, Postemergence, scale 0 to 100, read-out: Plant response rating, Ragweed
[24] = pre-emergence, Preemergence, scale 0 to 100, read-out: Plant response rating, Ragweed
[25] = post-emergence, Postemergence, scale 0 to 100 (0 no effect, 100 complete control), read-out: Nutsedge, Yellow plant response rating
[26] = post-emergence, Postemergence, scale 0 to 100, read-out: Plant response rating, Nutsedge, Yellow
[27] = pre-emergence, Preemergence, scale 0 to 100, read-out: Plant response rating, Nutsedge, Yellow
[28] = post-emergence, Postemergence, scale 0 to 100 (0 no effect, 100 complete control), read-out: Kochia plant response rating
[29] = post-emergence, Postemergence, scale 0 to 100, read-out: Plant response rating, Kochia
[30] = pre-emergence, Preemergence, scale 0 to 100, read-out: Plant response rating, Kochia
[31] = post-emergence, Postemergence, scale 0 to 100 (0 no effect, 100 complete control), read-out: Pigweed plant response rating
[32] = post-emergence, Postemergence, scale 0 to 100, read-out: Plant response rating, Pigweed
[33] = pre-emergence, Preemergence, scale 0 to 100, read-out: Plant response rating, Pigweed
[34] = post-emergence, Postemergence, scale 0 to 100 (0 no effect, 100 complete control), read-out: Foxtail, Giant plant response rating
[35] = post-emergence, Postemergence, scale 0 to 100, read-out: Plant response rating, Foxtail, Giant
[36] = pre-emergence, Preemergence, scale 0 to 100, read-out: Plant response rating, Foxtail, Giant
[37] = post-emergence, Postemergence, scale 0 to 100 (0 no effect, 100 complete control), read-out: Velvetleaf plant response rating
[38] = post-emergence, Postemergence, scale 0 to 100, read-out: Plant response rating, Velvetleaf
[39] = pre-emergence, Preemergence, scale 0 to 100, read-out: Plant response rating, Velvetleaf

Nc1nc(C2CC2)nc(C(=O)O)c1Br [Compound 8]
100%: pest or weed control at 250 g/ha [1, 12] | pest or weed control at 500 g/ha [1, 12] | pest or weed control at 125 g/ha [1, 13] | pest or weed control at 250 g/ha [1, 13] | pest or weed control at 500 g/ha [1, 13] | pest or weed control at 250 g/ha [2, 16] | pest or weed control at 500 g/ha [2, 16] | pest or weed control at 125 g/ha ([3]; post-emergence, Postemergence, scale 0 to 100 (0 no effect, 100 complete control), read-out: Cocklebur plant response rating) | pest or weed control at 250 g/ha [3, 17] | pest or weed control at 500 g/ha [3, 17] | pest or weed control at 250 g/ha [3, 18] | pest or weed control at 500 g/ha [3, 18] | pest or weed control at 250 g/ha ([4]; 250 g ai/ha, scale 0 to 100) | pest or weed control at 500 g/ha ([4]; 500 g ai/ha, scale 0 to 100) | pest or weed control at 500 g/ha [6, 23] | pest or weed control at 62 g/ha ([6]; pre-emergence, Preemergence, scale 0 to 100, 0 no effect, 100 complete control, read-out: Plant response rating, Ragweed) | pest or weed control at 125 g/ha [6, 24] | pest or weed control at 250 g/ha [6, 24] | pest or weed control at 500 g/ha [6, 24] | pest or weed control at 250 g/ha [7, 27] | pest or weed control at 500 g/ha [7, 27] | pest or weed control at 125 g/ha (kochia (Kochia scoparia); [28]) | pest or weed control at 250 g/ha (kochia (Kochia scoparia); [29]) | pest or weed control at 500 g/ha (kochia (Kochia scoparia); [29]) | pest or weed control at 250 g/ha (kochia (Kochia scoparia); [30]) | pest or weed control at 500 g/ha (kochia (Kochia scoparia); [30]) | pest or weed control at 250 g/ha [8, 32] | pest or weed control at 500 g/ha [8, 32] | pest or weed control at 250 g/ha [10, 39] | pest or weed control at 500 g/ha [10, 39]
70%: pest or weed control at 250 g/ha [5, 20] | pest or weed control at 62 g/ha [8, 31] | pest or weed control at 250 g/ha [9, 35] | pest or weed control at 125 g/ha [10, 37]
80%: pest or weed control at 62 g/ha ([3]; post-emergence, Postemergence, 62 g ai/ha, scale 0 to 100 (0 no effect, 100 complete control), read-out: Cocklebur plant response rating) | pest or weed control at 125 g/ha [6, 22]
20%: pest or weed control at 62 g/ha ([1]; pre-emergence, Preemergence, scale 0 to 100, 0 no effect, 100 complete control, read-out: Plant response rating, Morningglory) | pest or weed control at 62 g/ha ([4]; 62 g ai/ha, scale 0 to 100, 0 no effect, 100 complete control)
0%: pest or weed control at 62 g/ha ([2]; pre-emergence, Preemergence, scale 0 to 100, 0 no effect, 100 complete control, read-out: Plant response rating, Cupgrass, Woolly) | pest or weed control at 62 g/ha ([5]; pre-emergence, Preemergence, scale 0 to 100, 0 no effect, 100 complete control, read-out: Plant response rating, Crabgrass) | pest or weed control at 125 g/ha [5, 21] | pest or weed control at 250 g/ha [5, 21] | pest or weed control at 500 g/ha [5, 21] | pest or weed control at 62 g/ha [7, 25] | pest or weed control at 125 g/ha [7, 25] | pest or weed control at 250 g/ha [7, 26] | pest or weed control at 500 g/ha [7, 26] | pest or weed control at 62 g/ha ([7]; pre-emergence, Preemergence, scale 0 to 100, 0 no effect, 100 complete control, read-out: Plant response rating, Nutsedge, Yellow) | pest or weed control at 125 g/ha [7, 27] | pest or weed control at 62 g/ha ([9]; pre-emergence, Preemergence, scale 0 to 100, 0 no effect, 100 complete control, read-out: Plant response rating, Foxtail, Giant) | pest or weed control at 125 g/ha [9, 36] | pest or weed control at 250 g/ha [9, 36] | pest or weed control at 500 g/ha [9, 36]
40%: pest or weed control at 125 g/ha ([4]; 125 g ai/ha, scale 0 to 100) | pest or weed control at 62 g/ha [9, 34]
95%: pest or weed control at 62 g/ha [1, 11] | pest or weed control at 125 g/ha [1, 11] | pest or weed control at 250 g/ha [6, 23] | pest or weed control at 62 g/ha (kochia (Kochia scoparia); [28]) | pest or weed control at 500 g/ha [8, 33] | pest or weed control at 500 g/ha [10, 38]
30%: pest or weed control at 62 g/ha [2, 14]
75%: pest or weed control at 250 g/ha [2, 15] | pest or weed control at 500 g/ha [5, 20] | pest or weed control at 125 g/ha [8, 31] | pest or weed control at 500 g/ha [9, 35] | pest or weed control at 125 g/ha [10, 39]
85%: pest or weed control at 500 g/ha [2, 15] | pest or weed control at 125 g/ha [3, 18] | pest or weed control at 125 g/ha (kochia (Kochia scoparia); [30]) | pest or weed control at 125 g/ha [8, 33] | pest or weed control at 250 g/ha [10, 38]
60%: pest or weed control at 125 g/ha [2, 14] | pest or weed control at 62 g/ha [5, 19] | pest or weed control at 62 g/ha [6, 22] | pest or weed control at 125 g/ha [9, 34] | pest or weed control at 62 g/ha [10, 37]
50%: pest or weed control at 62 g/ha (kochia (Kochia scoparia); pre-emergence, Preemergence, scale 0 to 100, 0 no effect, 100 complete control, read-out: Plant response rating, Kochia)
65%: pest or weed control at 125 g/ha [2, 16] | pest or weed control at 125 g/ha [5, 19] | pest or weed control at 62 g/ha ([8]; pre-emergence, Preemergence, scale 0 to 100, 0 no effect, 100 complete control, read-out: Plant response rating, Pigweed) | pest or weed control at 62 g/ha ([10]; pre-emergence, Preemergence, scale 0 to 100, 0 no effect, 100 complete control, read-out: Plant response rating, Velvetleaf)
90%: pest or weed control at 250 g/ha [8, 33]
